Assay results taken from patent publication US7414068B2, “Benzopyran derivatives substituted with secondary amines including tetrazole, method for the preparation thereof and pharmaceutical compositions containing them” (Dongbu Hannong Chemical Co., Ltd., priority 2002, dated 2008).
Like-named read-outs stand apart in the source and are kept apart here.

Legend:
[1] = test system: A7r5 (Rat thoracic aorta smooth muscle cell line, ATCC); experiment: Inhibitory effect on accumulation of reactive oxygen species induced by hydrogen peroxide (DCF fluorescence); assay type: cell-based; conditions: hydrogen peroxide 50 μM
Method: To measure reactive oxygen species, H2DCFDA (2′,7′-dichlorodihydrofluorescein diacetate, Molecular Probes, Eugene, Oreg., USA) was used. If H2DCFDA, nonpolar material is transferred through cell membrane, it is changed to H2DCF (2′,7′-dichlorodihydrofluorescein), material impermeable to membrane by intracellular esterase. H2DCF is changed to high fluorescent DCF (2′,7′-dichlorofluorescein) by low fluorescent peroxidated oxygen or hydroxyl radical. H2DCFDA solution (10 mM) dissolved in DMSO was used before the experiment. A7r5 (Rat thoracic aorta smooth muscle cell line, ATCC), as smooth muscle cell was incubated in DMEM (Dulbecco's Modified Eagle's Medium) containing 10% of FBS (fetal bovine serum). Thereafter, the cell was incubated in 48 well plate for two days, then was incubated in serum-free DMEM for 24 hours to use for experiment. Krebs-linger buffer (Krebs-Ringer (K-R), 99.01 mM NaCl, 4.69 mM KCl, 1.87 mM CaCl2, 1.2 mM MgSO4, 1.03 mM K2HPO4, 25 mM NaHCO3, 20 mM Hepes, 11.1 mM D-glucose, pH 7.4) was used for washing and process of cell monolayers. After cell monolayers media was removed, each of test compounds (0.2 ml) was pre-treated to media, then incubated at 37° C. for 15 min. Final concentration was 50 μM, hydrogen peroxide was added. The media was allowed to stand for 30 min. The said solution from media was removed. The media was washed one time. H2DCFDA 20 μM was added to the media. The media was allowed to stand for 30 min. the media was washed two times. Thereafter, oxidation of H2DCFDA was measured by Fluorescence reader (FL600, Biotech Instruments, 485 nm excitation, 530 nm emission).

Sprague-Dawley Rat = conditions: 30 mg/kg; for Infarction volume Medium(%): four times to abdominal cavity, 24 hours after operation
Method: Male rat (Sprague-Dawley Rat, 350±50 g, Samyook) was anesthetized by administration of Pentobarbital sodium 40 mg/Kg. PE-19 tubing was inserted to the femoral vein and the artery, left carotid artery was exposed. Before the operation, heparin sulfate 20 μg was injected to the peritoneal cavity. Blood pressure measuring device was inserted to the femoral artery for the continuous measurement of arterial pressure. Blood (10 ml) was collected from the femoral vein to decrease blood pressure to 30 mmHg. If blood pressure is not decreased to 100 mmHg by collection of blood (7 ml), it is evaluated that sympathetic tone is very high.
With blood pressure maintaining to be 30 mmHg, left carotid artery was closed by aneurysm clamp for 20 min to induce ischemia. Reperfusion was accomplished by the collected blood and 0.84% bicarbonate saline (5 ml). Body temperature of rats was constantly maintained to be 37±0.5° C., by using thermal blanket and incandescent light bulbs during the ischemia. After the operation, in recovering period, body temperature was constantly maintained for more than 2 hours. If rats were recovered entirely, they were transferred to animal laboratory. Condition of animal laboratory, such as temperature, humidity and light cycle was constantly maintained to be 27° C., 60% and […], respectively.
After 24 hours from the operation, rats were sacrificed. Then brain was enucleated from rat within 3 min. Enucleated brain was excised on the ice at the interval 2 mm by using brain matrix to produce six coronal sections. The said coronal sections were dyed in 2% 2,3,5-triphenyltetrazolium chloride solution at 37° C. for 30 min. The said dyed coronal section was developed and printed. Thereafter, the ratio of necrosis area to brain area was measured by using Image Analyzer.
Otherwise, test compounds were four times administrated to abdominal cavity at a dose 30 mg/kg. […]
The protective effect on brain damage induced by brain ischemia-reperfusion was evaluated by calculating reduction of necrosis area to that of brain for a control group.

diabetic rats = experiment: Effect on motor nerve conduction velocity in diabetic rats; assay type: in vivo, rat; conditions: 50 mg/kg orally once a day
Method: Diabetes was induced with injection of Streptozotocin (65 mg/kg) in rats, then test compounds dissolved in 2 ml of media (physiological saline:ethanol:tween 80=1:1:1) were orally administrated once a day. Rats were anesthetized with pentotal, then the sciatic nerve was exposed to measure motor nerve conduction velocity. The nerve was stimulated at two points. The first stimulus electrode was inserted at proximal end, and second electrode stimulus electrode was inserted at the distal notch. The coaxia needle electrode was inserted into interdigitala muscle, then the muscle action potential induced by two points stimulation. The conduction velocity was calculated by dividing the distance between two stimulus points by the latency differences. Lipoic acid (100 mg/kg) was used in comparison with the compound of the present invention in recovery of impaired Motor Nerve Conduction Velocity (MNCV) in diabetic rats. The recovery (%) of Motor Nerve Conduction was calculated according to the following mathematical formula 1.

RAW 264.7 cells = experiment: Inhibitory effect on NO production (LPS, Griess reagent); assay type: cell-based, murine; conditions: Mus musculus, RAW264.7, 24 h, Addition 30 μM, LPS 1 μg/ml, read-out: Inihibition (%) of NO production
Method: Using RPMI1640 media supplemented with 10% fetal bovine serum (FBS), RAW 264.7 cells (obtained from American Type Culture Collection), a murine macrophage cell line, were cultured at 37° C. in a 5% CO2 incubator. The RAW 264.7 cells were harvested and cell density was adjusted to 5×10^5 cell/ml with a RPMI media supplemented with 0.5% FBS and plated at 5×10^4 cell/well to 96-well plate, which were then cultured for 20 hours in a CO2 incubator. After removal of the media, the cells were pre-treated for 1 hour with fresh media containing 30 μM. The test compounds were dissolved in DMSO and diluted to respective concentration in the media. In order to minimize DMSO effect on the nitric oxide formation by the RAW 264.7 cells in the walls, the media were allowed to contain DMSO at a concentration of 0.1% or less.
After completion of one-hour pre-treatment, Lipopolysaccharide (E. coli serotype 055:B5) was added to activate the cells at a final concentration of 1 μg/ml, which were maintained for 24 hours in a CO2 incubator. As a result of the activation of RAW 264.7 cells with LPS, NO was formed. The NO release into the media was in a form of nitrite (NO2^−) and quantitatively measured using the Griess reagent. A control group was treated only with vehicle instead of test compounds.
The inhibitory effect of the test compounds against NO production were determined as the reduction of NO quantity compared with that of the control group.

Compound: COC(OC)[C@@]1(C)Oc2ccc(N)cc2[C@H](N(Cc2nnn(C)n2)c2ccc(Cl)cc2)[C@H]1O [Example 11, (2S,3R,4S)-6-amino-4-[N-(4-chlorophenyl)-N-(2-methyl-2H-tetrazol-5-ylmethyl)amino]-3-hydroxy-2-methyl-2-dimethoxymethyl-3,4-dihydro-2H-1-benzopyran]
- Inhibitory(%) against reactive oxygen species accumulation ([1]; addition 3 μM): 6%
- Inhibitory(%) against reactive oxygen species accumulation ([1]; addition 10 μM): 82%
- Inhibitory(%) against reactive oxygen species accumulation ([1]; addition 30 μM): 124%
- Infarction volume Medium(%) (Sprague-Dawley Rat): 21.5 ± 2.6%
- Infarction volume Medium(%) (Sprague-Dawley Rat; listed as compound of formula 11): 21.5%
- Infarction volume Decrease(%) (Sprague-Dawley Rat; relative to control group): 46.3%
- Recovery(%) of motor nerve conduction (diabetic rats): 45.8%
- MNCV (diabetic rats; streptozotocin diabetic rats): 54 m/s
- inhibition at 30 µM (RAW 264.7 cells): 27%
